Data taken from patent US9096524B2, “Anthelmintic agents and their use” (Intervet International B.V., priority 2009, dated 2015).
Read-outs that look alike come from different tables or passages of the source.

System: A. galli (intestinal roundworm of chicken) larval stage 3; O. dentatum (nodular worm of swine) larval stages 3 and 4
Assay: Activity against Ascaridia galli and Oesophagostomum dentatum larvae in vitro (minimum effective concentration)
Type: cell-based
[1] = in vitro, two or more of A. galli L3, O. dentatum L3, L4, threshold 1 μM, read-out: MEC (minimum effective concentration) against two or more of the tested nematodes
[2] = in vitro, one or more of A. galli L3, O. dentatum L3, L4, threshold 1 μM, read-out: MEC (minimum effective concentration) against one or more of the tested nematodes
[3] = in vitro, one or more of A. galli L3, O. dentatum L3, L4, threshold 7 μM, read-out: MEC (minimum effective concentration) against one or more of the tested nematodes
[4] = read-out: MEC (minimum effective concentration) against two or more of the tested nematodes, in vitro, two or more of A. galli L3, O. dentatum L3, L4, threshold 1 μM
[5] = read-out: MEC (minimum effective concentration) against one or more of the tested nematodes, in vitro, one or more of A. galli L3, O. dentatum L3, L4, threshold 1 μM
[6] = read-out: MEC (minimum effective concentration) against one or more of the tested nematodes, in vitro, one or more of A. galli L3, O. dentatum L3, L4, threshold 7 μM

In the case of N#Cc1ccc(N2CCC(NC(=O)CCCN3CCN(c4cccc(Cl)c4)CC3)CC2)cc1C(F)(F)F [Example 617], the minimal effective concentration [1] is reported as < 1 µM.
In the case of O=C(CCN1CCN(c2cccc(Cl)c2)CC1)NC1CCN(c2ccc([N+](=O)[O-])c(C(F)(F)F)c2)CC1 [Example 594], the minimal effective concentration [2] is reported as < 1 µM.
For CC(C)COc1cc(OC2CCN(C(=O)CCN3CCN(c4ccc(Cl)cc4)CC3)CC2)ccc1[N+](=O)[O-] [Example 512], the minimal effective concentration [3] was < 7 µM.
With CC(C)(CN1CCN(c2ccc(C(F)(F)F)cc2)CC1)C(=O)N1CCC(Nc2ccc([N+](=O)[O-])c(C(F)(F)F)c2)CC1 [Example 585] the minimal effective concentration [1] was < 1 µM.
CC(C)COc1cc(OC2CCN(C(=O)CCN3CCN(c4ccc(Cl)cc4F)CC3)CC2)ccc1[N+](=O)[O-] [Example 519] was tested, and the minimal effective concentration [3] was < 7 µM.
In the case of O=C(CCN1CCN(c2ccc(C(F)(F)F)cc2)CC1)N1CCC(Nc2ccc(Cl)cc2)CC1 [Example 282], the minimal effective concentration [4] is reported as < 1 µM.
For O=C(CCCN1CCN(c2nnc(C(F)(F)F)s2)CC1)N1CC[C@H](Nc2ccc([N+](=O)[O-])c(C(F)(F)F)c2)C1 [Example 749], the minimal effective concentration [2] was < 1 µM.
For CC(C)(C)c1ccc(N2CCN(CCC(=O)N3CCC(Nc4ccc(S(=O)(=O)c5ccc(F)cc5)cc4)CC3)CC2)cc1 [Example 294], the minimal effective concentration [1] was < 1 µM.
For CN(C)S(=O)(=O)c1ccc(NC2CCN(C(=S)CCCN3CCN(c4ccc(C(F)(F)F)cc4)CC3)CC2)cc1C(F)(F)F [Example 699], the minimal effective concentration [1] was < 1 µM.
With CC(C)(C)c1ccc(N2CCN(CCC(=O)N3CCC(Nc4ccc(S(C)(=O)=O)c(C(F)(F)F)c4)CC3)CC2)cc1 [Example 340] the minimal effective concentration [2] was < 1 µM.
O=C(CCCN1CCN(c2ccc(C(F)(F)F)cc2)CC1)N1CCN(c2ccc(SC(F)(F)F)cc2)CC1 [Example 1033] was tested, and the minimal effective concentration [1] was < 1 µM.
For CS(=O)(=O)c1ccc(NC2CCN(C(=O)CCCN3CCN(c4ccc(Cl)cc4)CC3)CC2)cc1C(F)(F)F [Example 343], the minimal effective concentration [2] was < 1 µM.
CC(C)(C)c1ccc(N2CCN(CCC(=O)N3CCC(Nc4ccc([N+](=O)[O-])cn4)CC3)CC2)cc1 [Example 551] was tested, and the minimal effective concentration [2] was < 1 µM and the minimal effective concentration [1] was < 1 µM.
CN(CC1CCN(c2ccc(Cl)cc2)CC1)C(=S)N1CCC(Nc2ccc([N+](=O)[O-])c(C(F)(F)F)c2)CC1 [Example 676] was tested, and the minimal effective concentration [1] was < 1 µM.
Cc1cc(NC2CCN(C(=O)CCN3CCN(C(=O)c4cccc(C(F)(F)F)c4)CC3)CC2)ccc1[N+](=O)[O-] [Example 561] was tested, and the minimal effective concentration [1] was < 1 µM.
With O=[N+]([O-])c1ccc(OC2CCN(C(=S)CCN3CCC(c4ccc(C(F)(F)F)cc4)CC3)CC2)cc1C(F)(F)F [Example 697] the minimal effective concentration [2] was < 1 µM and the minimal effective concentration [1] was < 1 µM.
With O=C(CCCN1CCN(c2ccc(C(F)(F)F)cc2)CC1)N1CCCN(c2ccc(SC(F)(F)F)cc2)CC1 [Example 1027] the minimal effective concentration [2] was < 1 µM.
O=C(CCN1CCN(c2cccc(OC(F)(F)F)c2)CC1)N1CCC(Nc2ccc([N+](=O)[O-])c(C(F)(F)F)c2)CC1 [Example 191] was tested, and the minimal effective concentration [1] was < 1 µM.
N#Cc1ccc(NC2CCN(C(=O)CCCN3CCC(Nc4ccc(Cl)cc4)CC3)CC2)cc1C(F)(F)F [Example 759] was tested, and the minimal effective concentration [1] was < 1 µM.
O=C(CCCN1CC2CN(c3ccc(Cl)cc3)CC2C1)N1CCC(Nc2ccc([N+](=O)[O-])c(C(F)(F)F)c2)CC1 (stereo not drawn) [Example 716] was tested, and the minimal effective concentration [2] was < 1 µM and the minimal effective concentration [1] was < 1 µM.
For N#Cc1ccc(NC2CCN(C(=O)CCCN3CCN(c4ccc(C(F)(F)F)cc4)CC3)CC2)cc1 [Example 83, 4-(1-{4-[4-(4-trifluoromethyl-phenyl)-piperazin-1-yl]-butyryl}-piperidin-4-ylamino)-benzonitrile], the minimal effective concentration [5] was < 1 µM, the minimal effective concentration [6] was < 7 µM and the minimal effective concentration [4] was < 1 µM.
With CC(C)(C)c1ccc(N2CCN(CCCC(=O)N3CCCN(c4ccc(C#N)c(C(F)(F)F)c4)CC3)CC2)cc1 [Example 1010] the minimal effective concentration [2] was < 1 µM.
COc1ccc(N2CCN(CCCC(=O)N3CC[C@H](Nc4ccc([N+](=O)[O-])c(C(F)(F)F)c4)C3)CC2)cn1 [Example 746] was tested, and the minimal effective concentration [2] was < 1 µM.
In the case of CN(C)S(=O)(=O)c1ccc(NC2CCN(C(=O)CCN3CCN(c4ccc(Cl)cc4)CC3)CC2)cc1C(F)(F)F [Example 346], the minimal effective concentration [1] is reported as < 1 µM.
In the case of O=C(CCN1CCN(c2ccc(Cl)cc2)CC1)N1CCC(Oc2ccc([N+](=O)[O-])c(C(F)(F)F)c2)CC1 [Example 433], the minimal effective concentration [2] is reported as < 1 µM.
In the case of O=C(CCCN1CCN(c2ccc(C(F)(F)F)cc2)CC1)N1CCC(Nc2ccc([N+](=O)[O-])nc2)CC1 [Example 95, 1-[4-(6-nitro-pyridin-3-ylamino)-piperidin-1-yl]-4-[4-(4-trifluoromethyl-phenyl)-piperazin-1-yl]-butan-1-one], the minimal effective concentration [5] is reported as < 1 µM, the minimal effective concentration [6] is reported as < 7 µM and the minimal effective concentration [4] is reported as < 1 µM.
CN(C)S(=O)(=O)c1ccc(NC2CCN(C(=O)CCCN3CCN(c4ccc(Cl)cc4)CC3)CC2)cc1C(F)(F)F [Example 349] was tested, and the minimal effective concentration [3] was < 7 µM.
With O=C(CCN1CCN(c2ccc(C(F)(F)F)cc2)CC1)N1CCC(Nc2cccc(C(F)(F)F)c2)CC1 [Example 276] the minimal effective concentration [1] was < 1 µM.
For COc1cc(NC2CCN(C(=O)CCN3CCC(c4ccc(C(C)(C)C)cc4)CC3)CC2)ccc1[N+](=O)[O-] [Example 380], the minimal effective concentration [2] was < 1 µM and the minimal effective concentration [3] was < 7 µM.
With CCOc1cc(NC2CCN(C(=O)CCN3CCN(c4ccc(OCc5ccccc5)cc4)CC3)CC2)ccc1[N+](=O)[O-] [Example 407] the minimal effective concentration [3] was < 7 µM.
With O=C(CCCN1CCN(c2ccc(C(F)(F)F)cc2)CC1)N1CCC(Nc2ccc([N+](=O)[O-])cn2)CC1 [Example 98, 1-[4-(5-nitro-pyridin-2-ylamino)-piperidin-1-yl]-4-[4-(4-trifluoromethyl-phenyl)-piperazin-1-yl]-butan-1-one] the minimal effective concentration [5] was < 1 µM, the minimal effective concentration [6] was < 7 µM and the minimal effective concentration [4] was < 1 µM.
CC(CN1CCN(c2ccc(C(C)(C)C)cc2)CC1)C(=O)N1CC[C@@H](Nc2ccc([N+](=O)[O-])c(C(F)(F)F)c2)C1 (stereo partly drawn) [Example 787] was tested, and the minimal effective concentration [2] was < 1 µM.
O=C(CCN1CCCN(c2ccc(Cl)cc2)CC1)N1CC[C@@H](Nc2ccc([N+](=O)[O-])c(C(F)(F)F)c2)C1 [Example 799] was tested, and the minimal effective concentration [2] was < 1 µM.
COc1cc(OC2CCN(C(=O)CCN3CCN(c4ccc(F)cc4F)CC3)CC2)ccc1[N+](=O)[O-] [Example 477] was tested, and the minimal effective concentration [3] was < 7 µM.
CC(C)(C)c1ccc(N2CCC(CCCC(=O)N3CCC(Nc4ccc([N+](=O)[O-])c(C(F)(F)F)c4)CC3)CC2)cc1 [Example 137, 4-[1-(4-tert-butyl-phenyl)-piperidin-4-yl]-1-[4-(4-nitro-3-trifluoromethyl-phenylamino)-piperidin-1-yl]-butan-1-one] was tested, and the minimal effective concentration [5] was < 1 µM, the minimal effective concentration [6] was < 7 µM and the minimal effective concentration [4] was < 1 µM.
With Cn1nnc(-c2ccc(NC3CCN(C(=O)CCN4CCN(c5ccc(Cl)cc5)CC4)CC3)cc2)n1 [Example 445] the minimal effective concentration [2] was < 1 µM, the minimal effective concentration [3] was < 7 µM and the minimal effective concentration [1] was < 1 µM.
For O=[N+]([O-])c1ccc(NC2CCN(C(=S)CCN3CCN(c4ccc(OCc5ccccc5)cc4)CC3)CC2)cc1C(F)(F)F [Example 678], the minimal effective concentration [1] was < 1 µM.
N#Cc1ccc(N2CCC(NC(=O)CCN3CCN(c4ccc(C(F)(F)F)cc4)CC3)CC2)cc1C(F)(F)F [Example 611] was tested, and the minimal effective concentration [5] was < 1 µM.
For O=C(C1CCC[C@H](C(=O)N2CCN(c3ccccc3)CC2)C1)N1CCC(Oc2ccc([N+](=O)[O-])c(C(F)(F)F)c2)CC1 (stereo partly drawn) [Example 228], the minimal effective concentration [1] was < 1 µM.
With CC(C)(C)c1ccc(N2CCN(C(=O)CC(=O)N3CCC(Nc4ccc([N+](=O)[O-])c(C(F)(F)F)c4)CC3)CC2)cc1 [Example 203] the minimal effective concentration [1] was < 1 µM.
With O=C(CCCN1CCN(c2ccc(C(F)(F)F)cc2)CC1)N1CCCN(c2ccc(C(F)(F)F)cn2)CC1 [Example 1014] the minimal effective concentration [2] was < 1 µM.
O=C(CCN1CCN(c2ccc(C(F)(F)F)cn2)CC1)N1CCC(Nc2ccc([N+](=O)[O-])c(C(F)(F)F)c2)CC1 [Example 255] was tested, and the minimal effective concentration [1] was < 1 µM.
For COc1ccc(C2CCN(CCC(=O)N3CCC(Oc4ccc([N+](=O)[O-])c(OC)c4)CC3)CC2)cc1 [Example 484], the minimal effective concentration [2] was < 1 µM.
O=C(CCN1CCC(c2ccc(F)c(F)c2)CC1)N1CCC(Oc2ccc([N+](=O)[O-])c(C(F)(F)F)c2)CC1 [Example 436] was tested, and the minimal effective concentration [1] was < 1 µM.
In the case of CC(C)(C)c1ccc(N2CCN(CCC(=O)N3CCC(Nc4ccc([N+](=O)[O-])nc4)CC3)CC2)cc1 [Example 550], the minimal effective concentration [2] is reported as < 1 µM.
In the case of CCCCC(=O)N1CCC(OCC(=O)N2CCC(Nc3ccc([N+](=O)[O-])c(C(F)(F)F)c3)CC2)CC1 [Example 291], the minimal effective concentration [2] is reported as < 1 µM.
N#Cc1ccc(NC2CCN(C(=O)CCCC3CCN(c4ccc(Cl)cc4)CC3)CC2)cc1C(F)(F)F [Example 754] was tested, and the minimal effective concentration [4] was < 1 µM.
With O=C(CCCN1CCN(c2ccc(C(F)(F)F)cc2)CC1)N1CCC(Nc2ccc(Cl)cc2)CC1 [Example 273] the minimal effective concentration [4] was < 1 µM.
With CCCc1ccc(C2CCN(CCC(=O)N3CCC(Nc4ccc([N+](=O)[O-])c(OCC)c4)CC3)CC2)cc1 [Example 399] the minimal effective concentration [3] was < 7 µM.
